# Data from patent US7169818B2, “Lysophosphatidic acid receptor agonists and antagonists” (University of Virginia Patent Foundation, priority 2000, dated 2007).
# “Also recorded” adds a separate entry of the source.
# Tests used:
# human LPA3 [1] = target: T1, human LPA3 (Homo sapiens, UniProt Q9UBY5); experiment: GTP[γ35S] binding, LPA3-transfected HEK293T cell membranes; format: biochemical; design: expressed in transfected cells; host or cells: HEK293T (transient); conditions: for EC50: agonist activity, read-out: LP A3 EC50; for LP A3 Emax: efficacy compared to LPA (LPA = 100)
# T1 sequence (Q9UBY5 1-353): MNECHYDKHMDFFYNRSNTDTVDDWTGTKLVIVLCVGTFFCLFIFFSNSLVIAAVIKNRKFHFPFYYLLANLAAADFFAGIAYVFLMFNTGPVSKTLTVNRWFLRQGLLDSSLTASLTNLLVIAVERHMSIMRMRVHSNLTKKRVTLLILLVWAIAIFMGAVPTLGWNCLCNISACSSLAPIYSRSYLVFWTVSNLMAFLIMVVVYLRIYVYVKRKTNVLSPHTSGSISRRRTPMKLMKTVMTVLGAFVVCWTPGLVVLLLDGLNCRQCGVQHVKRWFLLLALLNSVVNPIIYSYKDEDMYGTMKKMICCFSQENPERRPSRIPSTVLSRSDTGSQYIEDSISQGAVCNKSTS
# Method: (§1) The appropriate receptor plasmid DNA (encoding mouse LPA1, human LPA2 or human LPA3) was mixed with equal amounts of expression plasmids (pcDNA3) encoding a mutated (C351F) rat Gi2a, cow β1, and γ2 proteins and these DNAs were used to transfect monolayers of HEK293T cells (where ‘T’ indicates expression of the SV-40 virus large T antigen) using the calcium phosphate precipitate method. After about 60 hours, cells were harvested, membranes were prepared, aliquoted and stored at −70° C. until use.
# (§2) The GTP[35 γS] assay was performed as described by us previously. Membranes containing 5 ug of protein were incubated in 0.1 ml GTP-binding buffer (in mM: HEPES 50, NaCl 100, MgCl2 10, pH7.5) containing […], […], 0.1 nM GTP[35 γS] (1200 Ci/mmol), and indicated lipid(s) for 30 minutes at 30° C. Samples were analyzed for membrane-bound radionuclide using a Brandel Cell Harvester (Gaithersburg, Md.).
# (§3) The X-intercept of the linear transformation is equal to the inverse log of the KI.
# (§4) Membranes prepared from these cells are used to measure GTPγ[^35S] binding as a function of test compound concentration. The resulting dose-response curves provide relative potency (EC50) and efficacy (Emax) for the test compounds.
# human LPA2 [2] = target: T2, human LPA2 (Homo sapiens, UniProt Q9HBW0); experiment: GTP[γ35S] binding, LPA2-transfected HEK293T cell membranes; format: biochemical; design: expressed in transfected cells; host or cells: HEK293T (transient); conditions: for EC50: agonist activity, read-out: LP A2 EC50; for antagonist activity at LPA2: block of LPA-induced GTP[γ35S] binding
# T2 sequence (Q9HBW0 whole entry): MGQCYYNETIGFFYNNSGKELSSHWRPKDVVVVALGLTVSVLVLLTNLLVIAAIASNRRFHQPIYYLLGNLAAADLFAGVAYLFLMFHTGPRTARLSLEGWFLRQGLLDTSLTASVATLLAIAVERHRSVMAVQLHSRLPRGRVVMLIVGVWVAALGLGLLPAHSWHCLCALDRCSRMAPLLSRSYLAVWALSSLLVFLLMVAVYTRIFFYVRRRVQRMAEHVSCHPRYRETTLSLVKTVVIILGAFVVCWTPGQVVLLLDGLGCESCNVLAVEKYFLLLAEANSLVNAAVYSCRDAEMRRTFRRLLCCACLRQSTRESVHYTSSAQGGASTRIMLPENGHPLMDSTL
# Method: as §1, §2, §4
# LPP3 (PAP2b) = target: T3, LPP3 (PAP2b) (Homo sapiens, UniProt O14495); experiment: LPP inhibition, competition with [32P]LPA; format: biochemical; conditions: for rank order of inhibition of the three LPPs: LPP1 (PAP2a), LPP2 (PAP2c), LPP3 (PAP2b)
# T3 sequence (O14495 1-311): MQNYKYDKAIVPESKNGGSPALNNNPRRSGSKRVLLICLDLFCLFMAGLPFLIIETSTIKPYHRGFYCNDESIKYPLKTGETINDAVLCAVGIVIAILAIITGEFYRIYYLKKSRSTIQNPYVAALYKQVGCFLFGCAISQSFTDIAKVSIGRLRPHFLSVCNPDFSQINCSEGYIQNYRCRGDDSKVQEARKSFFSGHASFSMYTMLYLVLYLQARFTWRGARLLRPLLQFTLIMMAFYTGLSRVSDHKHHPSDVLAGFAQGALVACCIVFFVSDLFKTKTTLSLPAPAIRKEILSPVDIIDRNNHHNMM
# Method: NOHPP was also tested for activity at the three cloned LPPs. Although the phosphonate head group eliminates the possibility of NOHPP acting as a substrate, it is possible that the compound could be a competitive inhibitor.
# mouse LPA1 [3] = target: T4, mouse LPA1 (Mus musculus, UniProt P61793); experiment: GTP[γ35S] binding, LPA1-transfected HEK293T (or RH7777) cell membranes; format: biochemical; design: expressed in transfected cells; host or cells: HEK293T (transient); for part of the results RH7777 membranes; conditions: for antagonist activity at LPA1: block of LPA-induced GTP[γ35S] binding
# T4 sequence (P61793 whole entry): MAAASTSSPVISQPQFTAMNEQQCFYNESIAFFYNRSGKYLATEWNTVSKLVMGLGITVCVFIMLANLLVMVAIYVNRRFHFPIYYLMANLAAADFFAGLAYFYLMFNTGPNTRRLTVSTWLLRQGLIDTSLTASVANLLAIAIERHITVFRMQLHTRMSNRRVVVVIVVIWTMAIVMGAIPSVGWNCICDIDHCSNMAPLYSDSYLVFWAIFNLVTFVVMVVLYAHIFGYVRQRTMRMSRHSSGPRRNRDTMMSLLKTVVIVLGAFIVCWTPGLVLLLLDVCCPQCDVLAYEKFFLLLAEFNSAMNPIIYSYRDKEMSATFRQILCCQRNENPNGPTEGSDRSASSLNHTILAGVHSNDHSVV
# Method: as §1, §2, §3, §4
# Xenopus laevis ooctyes [4] = conditions: previously reported; cited from earlier work
# human platelets [5] = conditions: previously reported; cited from earlier work
# LPA receptors = experiment: whole cell assays of calcium mobilization or inhibition of cAMP accumulation, agonist activity; format: cell-based
# Method: (§5) Assays for cAMP accumulation were conducted on populations of 5×10^5 cells stimulated with […] in the presence of the phosphodiesterase inhibitor isomethylbutylxanthine (IBMX) for 15 minutes at 30° C. cAMP was measured by automated radioimmunoassay.
# A FLIPR™ (Molecular Devices, Inc.) was used to measure intracellular calcium in A431 and HEK293T cells. A431 cells were seeded (˜50,000 cells/well) in 96-well clear bottom black microplates (Corning Costar Corp., Cambridge, Mass.) and left overnight in CO2 incubator at 37° C. HEK293T cells were treated likewise, but seeded onto poly D-lysine coated microplates (Becton Dickinson, Franklin Lakes, N.J.). A431 cells were dye-loaded with 4 μM Fluo-3 AM ester (Molecular Probes Inc., Eugene, Oreg.) in a loading buffer (1×HBSS buffer, pH 7.4, containing 20 mM HEPES, 0.1% BSA, and 2.5 mM probenecid) for 1 hour at 37° C. Cells were then washed four times with the loading buffer and exposed in the FLIPR™ to sets of compounds. HEK293T cells were loaded with 2 μM Fluo-4 AM ester (Molecular Probes Inc., Eugene, Oreg.) in the same loading buffer without probenecid for 30 minutes and washed four times before being exposed to compounds in the FLIPR™. In all cases, each concentration of each compound was tested in at least quintuplicate.
# [6] = test system: renal injury following ischemia-reperfusion; experiment: renal ischemia-reperfusion model; format: in vivo, C57BL6 mice; conditions: 1 mg/kg/2 hr
# Method: C57BL6 mice (20 gm, 8 wks of age) were used for all studies. The surgical protocol of renal IR has been previously described (Okusa et al., 1999. Am J. Physiol. (Renal Physiol.) 277: F404–412; Okusa, et al., 2000 Am. J. Physiol. (Renal Physiol.) 279; F809–F818, and Okusa et al., 2001 Kidney Int. 59:2114–2125). For the injury protocol, bilateral flank incisions were made under anesthesia with a regimen that consists of ketamine (100 mg/kg, ip.), xylazine (10 mg/kg, ip.) and acepromazine (1 mg/kg, im.). Renal pedicles were exposed and cross-clamped for 27–32 min. Kidneys were examined for immediate reperfusion following clamp removal. Wounds were closed and mice were returned to cages. […] The mice were sacrificed and the kidneys harvested at 1, 4, 8, 24, 48 hrs, 5 and 7 days. […] Mice were sacrificed following 24 hrs of reperfusion and plasma was obtained for BUN and creatinine.
# mouse LPA1 [7] = target: T4, mouse LPA1; experiment: cAMP accumulation in RH7777 cells stably expressing LPA1; format: cell-based; design: expressed in transfected cells
# Method: as §5
# Rat hepatoma RH7777 cell monolayers were transfected with the mLPAI plasmid DNA using the calcium phosphate precipitate method and clonal populations expressing the neomycin phosphotransferase gene were selected by addition of geneticin (G418) to the culture media. The RH7777 cells were grown in monolayers at 37° C. in a 5% CO02/95% air atmosphere in growth media consisting of: 90% MEM, 10% fetal bovine serum, 2 mM glutamine and 1 mM sodium pyruvate.
# (§6) wls-b8L and the other phosphonates were also tested also for activity in three whole cell assays. […] Finally, the activity of wls-b8L in activating a chloride conductance in Xenopus laevis ooctyes was measured.
# human LPA1 = target: T5, human LPA1 (Homo sapiens, UniProt Q92633); experiment: GTP[γ35S] binding, baculovirus-infected insect Sf9 cell membrane preparation; format: biochemical
# T5 construct: expressed in transfected cells; host or cells: Sf9 insect cells, recombinant baculovirus
# T5 sequence (Q92633 whole entry): as the sequence (P61793 whole entry) above, with A4I, S8I, Q22P, Y40H, V61I, D193E, H194N, V269I, N331S, N335T counted along it
# Method: The same activity was determined with human LPA1 using a recombinant baculovirus-infected insect Sf9 cell membrane preparation.
# Xenopus laevis ooctyes [8] = experiment: chloride conductance / depolarization in Xenopus oocytes, endogenous receptor; format: cell-based; conditions: uninjected Xenopus oocytes
# Method: as §6
# human LPA3 [9] = target: T1, human LPA3; experiment: chloride conductance in Xenopus oocytes injected with human LPA3 mRNA; format: cell-based; design: expressed in transfected cells; host or cells: Xenopus laevis oocytes, mRNA injection; conditions: 10 μM applied to the oocyte surface
# Method: as §6
# human LPA2 [10] = target: T2, human LPA2; experiment: chloride conductance in Xenopus oocytes injected with human LPA2 mRNA; format: cell-based; design: expressed in transfected cells; host or cells: Xenopus laevis oocytes, mRNA injection; conditions: 10 μM applied to the oocyte surface
# Method: as §6
# human platelets [11] = experiment: platelet aggregation; format: cell-based; conditions: concentrations up to 10 micromolar
# [12] = efficacy compared to LPA (LPA = 100)
compound,measurement,setting,value
"1-acyl, 2-hydroxyl-sn-glycerol-3-phosphate [LPA, reference compound]",EC50,human LPA3 [1]; GTP[γ35S] binding,0.263 µM
same,LP A3 Emax,human LPA3 [1],100
same,EC50,human LPA2 [2]; GTP[γ35S] binding,0.0068 µM
"CCCCCCCC/C=C\CCCCCCCC(=O)NCCC(O)P(=O)(O)O (racemic) [NOHPP, (9Z)-N-(rac-3-hydroxy-3-phosphonopropyl)octadec-9-enamide]",agonist activity / efficacy relative to LPA at LPA3,human LPA3 [1]; GTP[γ35S] binding,far less efficacious; also recorded: little activity
same,agonist potency relative to LPA at LPA3,human LPA3 [1]; GTP[γ35S] binding,distinctly less potent; also recorded: greater than two log orders less potent
same,rank order of inhibition of the three LPPs,LPP3 (PAP2b),LPP3>LPP1>>LPP2
same,rank order of inhibition of the three LPPs,LPP3 (PAP2b); listed as VPC12031,markedly better at the PAP2b (LPP3) than PAP2a (LPP1) which in turn is better than PAP2c (LPP2)
same,inhibition of LPP3,LPP3 (PAP2b); NOHPP in competition with 50 nM [32P]LPA,inhibited
same,agonist activity / efficacy relative to LPA at LPA1,mouse LPA1 [3]; GTP[γ35S] binding,as efficacious as; also recorded: fullly efficacious
same,agonist potency relative to LPA at LPA1,mouse LPA1 [3]; GTP[γ35S] binding,somewhat less potent than; also recorded: about one log order less potent
same,agonist activity / efficacy relative to LPA at LPA2,human LPA2 [2]; GTP[γ35S] binding,as efficacious as; also recorded: fullly efficacious
same,agonist potency relative to LPA at LPA2,human LPA2 [2]; GTP[γ35S] binding,somewhat less potent than; also recorded: about one log order less potent
"CCCCCCCCCCCCCCCC(=O)N[C@@H](COP(=O)(O)O)C(=O)O [NASPA, N-palmitoyl serine phosphate]",oocyte depolarization (literature),Xenopus laevis ooctyes [4],antagonize
same,platelet aggregation (literature),human platelets [5],antagonize
"CCCCCCCCCCCCCCCC(=O)N[C@@H](CCCC)COP(=O)(O)O [PNPA, N-palmitoyl-norleucinol-1-phosphate]",platelet aggregation (literature),human platelets [5],aggregates human platelets without regard to stereoselectivity
CCCCCCCC/C=C\CCCCCCCC(=O)N[C@@H](COP(=O)(O)O)Cc1ccccc1 [VPC12084],antagonist activity at LPA1,mouse LPA1 [3],did block LPA activity
same,agonist activity in whole cell assays,LPA receptors,appreciable agonist activity
CCCCCCCC/C=C\CCCCCCCC(=O)N[C@H](C)COP(=O)(O)O [VPC12086],agonist potency relative to LPA at LPA1,mouse LPA1 [3]; GTP[γ35S] binding,more potent than 1-oleoyl LPA; also recorded: more potent and efficacious than LPA
CCCCCCCC/C=C\CCCCCCCC(=O)N[C@@H](CC)COP(=O)(O)O [VPC12115],EC50,human LPA3 [1]; GTP[γ35S] binding,4.98 µM
same,LP A3 Emax,human LPA3 [1],89.3
same,EC50,"mouse LPA1 [3]; agonist activity, GTP[γ35S] binding, read-out: LP A1 EC50",1.58 µM
same,LP A1 Emax,mouse LPA1 [3]; [12],62.3
same,EC50,human LPA2 [2]; GTP[γ35S] binding,4.28 µM
same,LP A2 Emax,human LPA2 [2]; [12],85.6
CCCCCCCC/C=C\CCCCCCCC(=O)N[C@H](CN)COP(=O)(O)O [VPC12178],agonist potency relative to LPA at LPA1,mouse LPA1 [3]; GTP[γ35S] binding,more potent than 1-oleoyl LPA
CCCCCCCC/C=C\CCCCCCCC(=O)N[C@H](COP(=O)(O)O)Cc1ccc(OCc2ccccc2)cc1 [VPC12249],antagonist activity at LPA3,human LPA3 [1]; block of LPA-induced GTP[γ35S] binding,surmountable antagonist
same,antagonist activity at LPA1,mouse LPA1 [3],surmountable antagonist
same,"tissue preservation, H and E sections",[6],marked degree of tissue preservation
same,block of the inhibition of forskolin-induced increases in cAMP levels,mouse LPA1 [7]; RH7777 cells stably expressing LPA1,inhibited
same,agonist activity in whole cell assays,LPA receptors,completely devoid of agonist activity
same,antagonist activity at LPA2,human LPA2 [2],lack of antagonist activity
same,antagonist activity at human LPA1,human LPA1,same activity
CCCCCCCC/C=C\CCCCCCCC(=O)N[C@H](CO)COP(=O)(O)O [VPC31143],agonist potency relative to LPA at LPA1,mouse LPA1 [3]; GTP[γ35S] binding,more potent than 1-oleoyl LPA
CCCCCCCC/C=C\CCCCCCCC(=O)N[C@@H](COP(=O)(O)O)Cc1ccc(OCc2ccc(CCCCC)cc2)cc1 [VPC31162],agonist activity / efficacy relative to LPA at LPA3,human LPA3 [1]; GTP[γ35S] binding,agonist
same,agonist activity / efficacy relative to LPA at LPA1,mouse LPA1 [3]; GTP[γ35S] binding,agonist
same,antagonist activity at LPA2,human LPA2 [2],antagonist activity
"CCCCCCCC/C=C\CCCCCCCC(=O)NCCCP(=O)(O)O [wls-b8L, (9Z)-N-(3-phosphonopropyl)Octadec-9-enamide]","receptor-type selectivity of agonist activity (LPA1 vs LPA2, LPA3)",mouse LPA1 [3]; GTP[γ35S] binding,more potent and efficacious at LPA1 than at either LPA2 or LPA3; also recorded: distinctly more selective regarding its agonist activity at a single LPA receptor (LPA1)
same,"activation of chloride conductance, endogenous receptor",Xenopus laevis ooctyes [8],does not evoke this response
same,"activation of chloride conductance, human LPA3 mRNA injected",human LPA3 [9],very modest response
same,inhibition of cAMP accumulation (agonist efficacy),mouse LPA1 [7]; concentration of 1 μM,fully efficacious
same,"activation of chloride conductance, human LPA2 mRNA injected",human LPA2 [10],very modest response
same,aggregation of human platelets,human platelets [11],does not elicit aggregation
